The record followed here is EPA's ToxValDB 9.5 (doi:10.2903/j.efsa.2017.4912).

The structures appear in SMILES notation. Converted amounts (≈) assume the structure as drawn.

The subject of one series is Rattus norvegicus. The settings on record: for NOAEL: body weight.
The test system of another series is Apis mellifera. The conditions noted are these: acute, duration: 48 hours, mortality.
A further series deals with Anas platyrhynchos. The settings on record: reproductive; duration: 21 weeks; M; reproduction.
A further series deals with Folsomia candida. The settings on record: chronic/long-term; duration: 28 days.
The next series relates to Oncorhynchus mykiss. The conditions noted are these: acute; duration: 96 hours; mortality.
In the next series the test system is Tagia sp. The settings on record: chronic/long-term; duration: 56 days.
In a further series the test system is Cyprinodon variegatus. The settings on record: chronic/long-term; duration: 28 days; other.
For another series, the system named is Typhlodromus pyri. The experiment in a line: LR50; higher = less toxic. The settings on record: not reported; duration: 7 days; mortality.

As to `COC(=O)c1ccccc1S(=O)(=O)NC(=O)Nc1nc(C)nc(OC)n1` [Metsulfuron-methyl], the NOAEL in the series with Oryctolagus sp. (developmental, development) is 25 mg/kg-day; in the series with Rattus norvegicus (chronic, duration: 2 years), 22.4 mg/kg-day.

For the molecule `COC(=O)c1ccccc1S(=O)(=O)NC(=O)N(C)c1nc(C)nc(OC)n1` [Tribenuron-methyl], the LD50 is over 98.4 µg/piece in the series on Apis mellifera (dermal); over 9.1 µg/piece in the series with Apis mellifera (oral, unspecified); over 2250 mg/kg-day with Colinus virginianus (acute, oral, mortality); over 5000 mg/kg-day in the series with Rattus norvegicus (acute, oral, mortality). For the same molecule, the NOEL came to 21 mg/kg-day in the series with Anas platyrhynchos and 21 mg/kg-day with Colinus virginianus (reproduction developmental, duration: 23 weeks, reproduction). The NOEC with Folsomia candida came out at 30.8 mg/kg; with Tagia sp. it was 3.2 mg/kg; in the series on Cyprinodon variegatus, 11.9 mg/L. The NOAEL in the series with Oryctolagus sp. (reproduction developmental, mortality) stood at 20 mg/kg-day; in the series with Rattus norvegicus (chronic, duration: 2 years) it was 1 mg/kg-day; in the series with Rattus norvegicus (reproduction developmental), 2 mg/kg-day; in the series with Rattus norvegicus (subchronic, duration: 90 days, oral) it was 7 mg/kg-day. In addition, the LC50 in the series on Oncorhynchus mykiss was determined as 738 µg/mL (≈ 1870 µM). Also, the LR50 with Typhlodromus pyri was over 29.6 g/ha.

As a reminder, the NOAEL is the highest dose or exposure tested at which no adverse effect was seen. Usually LC50 stands for the concentration lethal to half of the exposed cells or organisms.
